Assay: Numerical simulations (Comsol Multiphysics) of small-molecule concentration dynamics with porous beads and conical microwells
Conditions: 225 μm diameter beads

diffusion coefficient in the bead, Db, corresponding to measured t1/2: 0.125 μm^2/s
SMILES: O=C1OC2(c3ccc(O)cc3Oc3cc(O)ccc32)c2ccccc21 [fluorescein]

— patent US12523646B2, “Device and method for cell-based drug screening” (The Regents of the University of California, priority 2017, dated 2026)
